Measurements reported in patent publication US10112918B2, “15-oxospiramilactone derivatives, preparation method and uses thereof” (Kunming Institute of Botany, The Chinese Academy of Sciences, priority 2013, dated 2018).
Where two headings read alike, the source gives them in different places.

How the values were obtained:
Assay type in all cases: cell-based
[1] = test system: SW-480 (human colon cancer cells); assay: MTT inhibition of tumor cell growth, SW-480; conditions: Homo sapiens, SW480, 48 h
Summary of the method: (§1)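 Cells seeded at 5000-10000/well in DMEM or RPMI1640 with 10% FBS, exposed 48 h at 37 °C to compound (40 μM primary screen; 5-concentration re-screen for ~50% inhibitors), triplicates. MTT added 4 h, formazan dissolved in 10% SDS overnight, A595 read; IC50 by Reed-Muench two-point method.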

[2] = test system: HL-60 (human promyelocytic leukemia cells); assay: MTT inhibition of tumor cell growth, HL-60; conditions: Homo sapiens, HL-60, 48 h
Summary of the method: as §1

[3] = test system: SMMC-7721 (human hepatoma cells); assay: MTT inhibition of tumor cell growth, SMMC-7721; conditions: Homo sapiens, SMMC-7721, 48 h
Summary of the method: as §1

[4] = test system: Wnt signaling pathway (Top-Flash reporter gene); assay: Top-Flash Wnt reporter gene assay in HEK293T cells with Wnt3a conditioned medium; conditions: Homo sapiens, HEK-293T, 6 h, HEK293T, Wnt3a conditioned medium, 6 h
Protocol: HEK293T cells were cultured in DMEM containing 10% fetal bovine serum (Invitrogen) at 37° C., 5% CO2. The cells were passaged every other day. The density was retained at 70˜80% during passage. L cell line (CRL-2647, purchased from the gene bank of ATCC, the US) and the control cell line (CRL-2648, purchased from ATCC, US), which stably secreted mouse Wnt3a protein, were cultured in DMEM containing 50 ug/ml G418 and 10% fetal bovine serum, at 37° C., 5% CO2. When the cells grew to a density of about 70%, the medium was replaced with DMEM containing 10% fetal bovine serum. After continuous culture for 4 days, the culture was collected and centrifuged, and the supernatant was kept so that the Wnt conditioned medium was obtained. After titration assay, the conditioned medium was quick-frozen in liquid nitrogen, and placed at −80° C. for long-term storage, so that the titer was kept unchanged.
The cells were seeded to a 48-well plate at a density of […] cells per well, and transfected 20 h later. The reagents for plasmid transfection were calculated based on the amount in each well of the 48-well plate as following: the total amount of plasmid was 125 ng/well; the plasmid was first added to a serum-free medium (25 μL/well) and mixed well; PLUS reagent (Invitrogen) was then added in an amount of 0.5 μL/well and mixed well, then stood for 15 min; Lipofectamine (Invitrogen) liposome was added in an amount of 0.5 μL/well to serum-free DMEM medium (25 μL/well), and then mixed with the solution containing the plasmid and the PLUS, and stood for 15 min. The cells were cultured in serum-free DMEM medium (100 μL/well), and the final mixture of plasmid, PLUS and Lipofectamine were added to the cells. After incubation for 3 h, the transfection was stopped by the medium containing 10% fetal bovine serum (200 μL/well).
The HEK293T cells used for activity assay of the report gene were transfected by the method as shown in 2). Activity assay of Wnt reporter gene: the amount of plasmid for transfection was 5 ng/well for TOP-flash and 5 ng/well for GFP plasmid as internal standard, with lacZ added to reach a total amount of 125 ng/well. […] After treating for 6 h, Boehringer Mannheim Luci-ferase Assay Kit was used to lyse cells (200 μL/well). 50 μL from each well was pipetted into a 96-well plate. The indensity of GFP protein in the cell lysate was measured by fluorimeter FL600 (BIO-TEK Inc. Winooski, Vt.), and taken as internal standard for cell transfection efficiency. 10 μL substrate of luciferase was then added to each well, and the activity of luciferase was measured by Micro Lumate Plus (Perkin Elmer Inc. Wellesley, Mass.) luminometer. Finally, GFP indensity was used as internal standard to calibrate the activity of luciferase, i.e. the activity of Wnt reporter gene.
Calculation of IC50 (taking the calculation of IC50 of the Wnt signaling pathway for example): background (the activity as measured in the groups treated with a conditioned medium containing DMSO only) was subtracted from the reporter gene activity as measured in the groups treated by Wnt3a conditioned medium with or without the compound to be tested at different concentrations; and the obtained value was defined as the activity of the reporter gene induced by Wnt or the residual activity of the reporter gene after adding the compound to be tested. The residual activity was normalized by the activity induced by Wnt to get the relative residual activity. Then combine with the concentrations of the compound to be tested to plot a linear graph, and a dose-effect curve was fitted based on 4-parameter logistic fit. IC50 of the Wnt signaling pathway is determined as the concentration at which the relative residual activity is 0.5.

[5] = test system: A-549 (Human lung adenocarcinoma cells); assay: MTT inhibition of tumor cell growth, A-549; conditions: Homo sapiens, A549, 48 h
Summary of the method: as §1

[6] = test system: MCF-7 (human breast cancer cells); assay: MTT inhibition of tumor cell growth, MCF-7; conditions: Homo sapiens, MCF7, 48 h
Summary of the method: as §1

[7] = Table 2, derivatives having potential Michael reaction acceptor, read-out: IC50 SW-480
[8] = Table 2, derivatives having potential Michael reaction acceptor
[9] = Table 9, read-out: IC50(μM), inhibitory activity on the Wnt signaling pathway
[10] = Table 5, derivatives having double Michael reaction acceptor, read-out: IC50 SW-480
[11] = Table 5, derivatives having double Michael reaction acceptor
[12] = Table 3, single Michael reaction acceptor, modified lactonic ring, read-out: IC50 SW-480
[13] = Table 6, 7-hydroxyl derivatives and controls, read-out: IC50 SW-480, 7-hydroxyl derivatives
[14] = Table 3, single Michael reaction acceptor, modified lactonic ring
[15] = Table 8, read-out: IC50 (μM), inhibitory activity on the Wnt signaling pathway
[16] = Table 6, 7-carbonyl derivatives, read-out: IC50 SW-480, 7-carbonyl derivatives
[17] = Table 6, double Michael reaction acceptor derivatives, read-out: IC50 SW-480, derivatives having double Michael reaction acceptor
[18] = Table 10, read-out: IC50 (μM), inhibitory activity on the Wnt signaling pathway
[19] = Table 4, derivatives obtained by reduction of the lactonic ring, read-out: IC50 SW-480
[20] = Table 4, derivatives obtained by reduction of the lactonic ring

| Compound | IC50 [1, 7] | IC50 [2, 8] | IC50 [3, 8] | IC50 [4, 9] | IC50 [5, 8] | IC50 [6, 8] | IC50 [1, 12] | IC50 [2, 14] | IC50 [3, 14] | IC50 [4, 15] | IC50 [5, 14] | IC50 [6, 14] | also measured |
| --- | --- | --- | --- | --- | --- | --- | --- | --- | --- | --- | --- | --- | --- |
| C=C1C(=O)[C@]23CC[C@H]1CC2[C@@]12CCC[C@@](C)(COC1=O)C2[C@H](Cl)C3=O (stereo partly shown) [Compound 14] | 2.38 µM | 3.82 µM | 1.96 µM | 20.1 ± 1.32 µM | 3.03 µM | 2.63 µM | – | – | – | – | – | – | – |
| C=C1C(=O)[C@]23CC[C@H]1CC2[C@@]12CCC[C@@](C)(COC1=O)C2=CC3=O (stereo partly shown) [Compound 15] | – | – | – | 11.1 ± 0.63 µM | – | – | – | – | – | – | – | – | IC50 [1, 10]: 1.21 µM; IC50 [2, 11]: 0.8 µM; IC50 [3, 11]: 0.8 µM; IC50 [5, 11]: 0.91 µM; IC50 [6, 11]: 1.44 µM |
| C=C1C(=O)[C@@]23CC[C@@H](CC2[C@@]24CCC[C@@](C)(COC2=O)C14)C(=C)[C@@H]3O (stereo partly shown) [Compound 16] | 11.4 µM | 5.56 µM | 12 µM | 8.27 ± 1.24 µM | 4.77 µM | 3.09 µM | – | – | – | – | – | – | – |
| C=C1C(=O)[C@]23CC[C@H]1CC2[C@@]12CCC[C@@](C)(CO[C@H]1OC)C2C[C@H]3O (stereo partly shown) [Compound 21] | – | – | – | – | – | – | 4.19 µM | 4.2 µM | 1.87 µM | 27.4 ± 0.98 µM | 3.17 µM | 5.04 µM | IC50 [1, 13]: 2.9 µM |
| C=C1C(=O)[C@]23CC[C@H]1CC2[C@@]12CCC[C@@](C)(CO[C@H]1OC)C2CC3=O (stereo partly shown) [Compound 22] | – | – | – | – | – | – | 2.2 µM | 1.46 µM | 0.51 µM | 17.6 ± 1.9 µM | 0.67 µM | 1.57 µM | IC50 [1, 16]: 2.56 µM |
| C=C1C(=O)[C@@]23CC[C@@H](CC2[C@@]24CCC[C@@](C)(CO[C@H]2OC)C14)C(=C)C3=O (stereo partly shown) [Compound 23] | – | – | – | 6.72 ± 1.11 µM | – | – | – | – | – | – | – | – | IC50 [1, 10]: 0.39 µM; IC50 [1, 17]: 0.79 µM; IC50 [2, 11]: 0.51 µM; IC50 [3, 11]: 0.15 µM; IC50 [5, 11]: 0.2 µM; IC50 [6, 11]: 0.24 µM |
| C=C1C(=O)[C@]23CC[C@H]1CC2[C@@]12CCC[C@@](C)(COC1)C2C[C@H]3O (stereo partly shown) [Compound 25] | – | – | – | – | – | – | 6.33 µM | 4.87 µM | 4.92 µM | 21.7 ± 0.63 µM | 3.25 µM | 4 µM | IC50 [1, 13]: 4.12 µM |
| C=C1C(=O)[C@]23CC[C@H]1CC2[C@@]12CCC[C@@](C)(COC1)C2CC3=O (stereo partly shown) [Compound 28] | 2.37 µM | 4.9 µM | 4.62 µM | – | 2.97 µM | 2.85 µM | 2.37 µM | 4.9 µM | 4.62 µM | 9.12 ± 0.21 µM | 2.97 µM | 2.85 µM | IC50 [1, 16]: 2.06 µM |
| C=C1C(=O)[C@]23CC[C@H]1CC2[C@@]12CCC[C@@](C)(COC1)C2[C@H](CO)C3=O (stereo partly shown) [Compound 30] | 1.53 µM | 1.94 µM | 1.9 µM | – | 0.77 µM | 1.44 µM | – | – | – | – | – | – | IC50 [4, 18]: 15.4 ± 1.5 µM |
| C=C1C(=O)[C@@]23CC[C@@H](CC2[C@@]24CCC[C@@](C)(COC2)C14)C(=C)C3=O (stereo partly shown) [Compound 31] | 5.43 µM | 3.6 µM | 4.44 µM | 7.1 ± 0.7 µM | 6.11 µM | 8.86 µM | – | – | – | – | – | – | IC50 [1, 10]: 0.62 µM; IC50 [1, 17]: 0.45 µM; IC50 [2, 11]: 1.31 µM; IC50 [3, 11]: 1.79 µM; IC50 [5, 11]: 0.76 µM; IC50 [6, 11]: 1.71 µM |
| C=C1C(=O)[C@]23CC[C@H]1CC2[C@@]12CCC[C@@](C)(COC1)C2[C@H](COS(C)(=O)=O)C3=O (stereo partly shown) [Compound 32] | 1.58 µM | 3.45 µM | 3.12 µM | – | 2.22 µM | 2.02 µM | – | – | – | – | – | – | IC50 [4, 18]: 19.8 ± 1.04 µM |
| C=C1C(=O)C23CC[C@H]1CC2[C@@]12CCC[C@@]4(C)CO[C@@H]1O[C@@H]3CC42 (stereo partly shown) [Compound 36] | – | – | – | – | – | – | 24.6 µM | 17 µM | 10.9 µM | 18.1 ± 2.67 µM | 13.7 µM | 18.5 µM | – |
| C=C1C(=O)C23CC[C@H]1CC2[C@]1(C(=O)O)CCC[C@@](C)(CO)C1C[C@H]3O (stereo partly shown) [Compound 38] | – | – | – | – | – | – | > 40 µM | > 40 µM | > 40 µM | > 60 µM | > 40 µM | > 40 µM | – |
| C=C1C(=O)C23CC[C@H]1CC2[C@@]12CCC[C@@](C)(C(=O)OC1=O)C2CC3=O (stereo partly shown) [Compound 39] | – | – | – | – | – | – | 20.7 µM | 28.8 µM | 34.8 µM | > 60 µM | 17.5 µM | 21.5 µM | – |
| C=C1C(=O)C23CC[C@H]1CC2[C@@]12CCC[C@@](C)(COS(=O)OC1)C2C[C@H]3O (stereo partly shown) [Compound 41] | – | – | – | – | – | – | 2.09 µM | 1.58 µM | 0.9 µM | > 60 µM | 2.18 µM | 2.24 µM | IC50 [1, 13]: 2.09 µM |
| C=C1C(=O)C23CC[C@@H](CC2[C@@]24CCC[C@@](C)(COS(=O)OC2)C14)C(=C)C3=O (stereo partly shown) [Compound 43] | – | – | – | 12.8 ± 0.13 µM | – | – | – | – | – | – | – | – | IC50 [1, 10]: 0.59 µM; IC50 [1, 17]: 0.34 µM; IC50 [2, 11]: 0.68 µM; IC50 [3, 11]: 0.16 µM; IC50 [5, 11]: 0.58 µM; IC50 [6, 11]: 0.78 µM |
| C=C1C(=O)C23CC[C@H]1CC2[C@]1(COC(C)=O)CCC[C@@](C)(COC(C)=O)C1C[C@H]3O (stereo partly shown) [Compound 45] | – | – | – | – | – | – | – | – | – | 9.98 ± 1 µM | – | – | IC50 [1, 19]: 9.89 µM; IC50 [1, 13]: 2.81 µM; IC50 [2, 20]: 4.74 µM; IC50 [3, 20]: 7.83 µM; IC50 [5, 20]: 3.49 µM; IC50 [6, 20]: 4.82 µM |
| C=C1C(=O)C23CC[C@H]1CC2[C@]1(CO)CCC[C@@](C)(CO)C1C[C@H]3O (stereo partly shown) [Compound 46] | – | – | – | – | – | – | – | – | – | – | – | – | IC50 [1, 19]: 4.42 µM; IC50 [2, 20]: 4.28 µM; IC50 [3, 20]: 4.48 µM; IC50 [4, 18]: 27.7 ± 2.8 µM; IC50 [5, 20]: 4.28 µM; IC50 [6, 20]: 8.07 µM |
